Experimental findings from patent publication US20250129012A1, “ANTI-INFLAMMATORY AND ANALGESIC COMPOUNDS AND USE THEREOF” (JIANGSU ATOM BIOSCIENCE AND PHARMACEUTICAL CO., LTD., priority 2021, published 2025) are described below.

Assay type in all cases: in vivo, SD rats
For experiment [1], the system named is gouty arthritis in rats (urate crystals, left ankle joint). Nature of the experiment: Pharmacodynamics experiment A on gouty arthritis in rats: paw volume. Particulars: for Paw volume: Mean ± SEM. On the procedure: (§1) Compounds 2, 17, 26 and 27 were prepared by grinding with 0.5% CMC-Na into a suspension of the corresponding concentration (0.06 mg/mL) for gavage before administration, and the volume of administration was 10 mL/kg. […] Before use, 0.5% CMC-Na was used for grinding and prepared into a suspension of the corresponding concentration (0.06 mg/mL) for gavage, and the volume of drug administered was 10 mL/kg.
(§2) Each group of subjects was prepared into a suspension of the corresponding concentration, and the administration volume was 10 mL/kg.
(§3) The crystalline arthritis model was prepared by intra-articular injection of urate crystals (40 mg/mL, in the left ankle joint of each rat). Different doses of the test drug were given separately by gavage administration. The day of administration was defined as day 1 of the experiment, and the drug was administered once a day for 10 consecutive days (pre-administration of the drug for 7 days prior to modeling, modeling on day 8, and continuation of the drug for 3 days). The experiment ended on day 10.
Paw volume was measured before administration, before urate injection, and 2, 4, 8, 10, 24, and 48 h after injection.
(§4) The data obtained from the experiment were statistically analyzed using IBM SPSS Statistics 22.0. All measurements were expressed as Mean±S.E.M s. The data were analyzed using SPSS 22.0 statistical software and variance chi-square test was performed on the parameters.

Experiment [2] has the same test system. The experiment can be described thus: Pharmacodynamics experiment A on gouty arthritis in rats: gait score. The arrangement: Gait Score: scale not given here. Particulars: 0.6 mg/kg gavage; for Gait Score: Mean ± SEM. As for the experimental part: as §1, §2, §3
The degree of lameness of the modeled joints was observed and scored at the same time point.
as §4

In experiment [3] the test system is TNF-α. Nature of the experiment: Inflammatory factor experiment B: TNF-α in knee synovial tissue (ELISA). On the technique in general: In an ELISA, binding on a coated surface is turned into a signal by an enzyme label.

Marks after values point to notes of the source that are not given here.

As to `COc1cc2c(c(OC)c1OC)-c1ccc(OC)c(=O)cc1[C@@H](NC(C)=O)CC2` [colchicine, reference compound], in experiment [1] (0.6 mg/kg gavage, time points after modeling), the “Paw volume versus model group, in words” value was “significantly smaller than those in the model group at 2 h, 4 h, 8 h, 10 h, and 48 h after modeling”. In addition, the Paw volume in experiment [1] (2 h after modeling, 0.6 mg/kg gavage) is listed as 2.44 ± 0.02*** cm^3; in experiment [1] (4 h after modeling, 0.6 mg/kg gavage) it was 2.45 ± 0.03** cm^3; in experiment [1] (8 h after modeling, 0.6 mg/kg gavage), 2.44 ± 0.04*** cm^3; in experiment [1] (10 h after modeling, 0.6 mg/kg gavage), 2.46 ± 0.04** cm^3; in experiment [1] (24 h after modeling, 0.6 mg/kg gavage) it was 2.46 ± 0.05 cm^3; in experiment [1] (48 h after modeling, 0.6 mg/kg gavage) it was 2.24 ± 0.03*** cm^3. The compound also returned a Paw volume in experiment [1] (before modeling, 0.6 mg/kg gavage once a day) of 2.18 ± 0.03 cm^3. For the same compound, in experiment [2] (time points after modeling, P<0.05 or P<0.01), the “Gait versus model group, in words” value is “improved the gait of rats at 2 h, 24 h, and 48 h after modeling”. For the same compound, the Gait Score in experiment [2] (2 h after modeling) turned out to be 1.10 ± 0.10; in experiment [2] (4 h after modeling), 1.10 ± 0.10; in experiment [2] (8 h after modeling), 1.30 ± 0.15; in experiment [2] (10 h after modeling), 1.30 ± 0.21; in experiment [2] (24 h after modeling), 1.00 ± 0.00; in experiment [2] (48 h after modeling), 1.00 ± 0.00. Besides, in experiment [2] (before modeling), the Gait Score is listed as 0.00 ± 0.00. Moreover, the inhibition in vivo at 0.6 mg/kg in experiment [3] (Rattus norvegicus, po, synovial tissue of knee joints, 48 h after modeling, dose 0.6 mg/kg, read-out: TNF-α percentage decrease %) amounted to 58%. For the same compound, in experiment [3] (Rattus norvegicus, po, synovial tissue of knee joints, 48 h after modeling, dose 1.2 mg/kg (high dose group), read-out: TNF-α percentage decrease %), the inhibition in vivo at 1.2 mg/kg was found to be 52.5%. Besides, the “TNF-α level after modeling, in words” value in experiment [3] (compounds 0.6 mg/kg, colchicine 0.6 and 1.2 mg/kg) is on record as “could reduce the TNF-αlevel”.
